Earlier results as cited in US20230106535A1, “TECHNIQUES FOR DETERMINING CALCIMIMETIC DRUG ACTIVITY” (Fresenius Medical Care Holdings, Inc., priority 2021, published 2023).

How the values were obtained:
[1] = system: iPTH, serum ionized Ca, phosphate
[2] = system: corrected serum calcium; conditions: clinical studies
[3] = not given; remark: listed apart in the source
[4] = healthy subjects; plasma concentration declines tri-exponentially
[5] = system: PTH; conditions: n=343, Source E
[6] = long term studies, within 12 weeks

Structure (SMILES): CC(=O)N[C@H](CSSC[C@H](N)C(=O)O)C(=O)N[C@H](C)C(=O)N[C@H](CCCNC(=N)N)C(=O)N[C@H](CCCNC(=N)N)C(=O)N[C@H](CCCNC(=N)N)C(=O)N[C@H](C)C(=O)N[C@H](CCCNC(=N)N)C(N)=O [etelcalcetide]
- highest changes in Ca concentration ([1]; HD patients, after a 60 mg administration): around 15%
- time to decline of iCa concentration ([1]; HD patients, after administration, dose-dependent): ≤ 10 h
- time to lowering of intact PTH (iPTH) ([1]; after a single dose): ≤ 30 min
- time to iCa plateau ([1]; after a single dose administration): 56 h
- iCa decline before reaching a plateau [1, 6]: around 10%
- phosphate decline before reaching a plateau [1, 6]: ~5%
- time to plateau in iPTH ([1]; post single dose administration): 1 h
- time to decrease in phosphate ([1]; post-administration): about 4 hours
- time after which iCa gradually decreases ([1]; single dose): about 18 hours
- time phosphate remains low ([1]; single dose): about 4 days
- time serum ionized Ca (iCa) remains stable ([1]; single dose): 8 h
- patients with at least one corrected calcium value below 8.3 mg/dl [2]: 79%
- patients with at least one corrected serum calcium value below 7 mg/dl [2]: around 7.6%
- rate of conversion from SAPC to etelcalcetide relative to conversion of etelcalcetide to SAPC (faster): roughly 16 fold
- rate of conversion from SAPC to etelcalcetide relative to dialytic rate constant (slower): approximately 200 fold
- etelcalcetide dose cleared by HD (within 15 minutes, almost all cleared as intact etelcalcetide): approximately 70%
- time to steady state of etelcalcetide plasma concentration ([3]; clinical studies, multiple 2.5 mg or 5 mg administrations after every HD session): about 4 weeks
- biotransformation resulting in (reversible) formation of SAPC ([3]; human, in vivo): roughly 60%
- etelcalcetide undergoing biotransformation ([3]; human, in vivo): approximately 90%
- half-life ([3]; patients on intermittent HD): ~50 days
- terminal half-life [4]: around 20 hours

Structure (SMILES): C[C@@H](NCCCc1cccc(C(F)(F)F)c1)c1cccc2ccccc12 [cinacalcet]
- patients with PTH reduction >30% from baseline, clinical results [5]: 57.7%
- patients with PTH reduction >50% from baseline, clinical results [5]: 40.2%
